Data as given in ChEMBL document CHEMBL1201862, “PubChem BioAssay data set” (2004).
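Grown in 96-well plates, cells were treated for 48 hours with each compound at five concentrations. Insufficient inhibition: endpoint recorded as highest concentration tested. GI50 is the concentration that inhibits growth by half.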 The source made the active and inactive calls. Rule as the data show it: active = GI50 up to about 1.1 µM and inactive = higher.

What was measured:
Test in all cases: NCI tumour cell line growth inhibition, 48 h
SF-539 = tested on: SF-539
DMS-114 = tested on: DMS-114
NCI-H460 = tested on: NCI-H460
TK-10 = tested on: TK-10
COLO 205 = tested on: COLO 205
DMS-273 = tested on: DMS-273
MOLT-4 = tested on: MOLT-4
SK-MEL-2 = tested on: SK-MEL-2
OVCAR-5 = tested on: OVCAR-5
KM-20L2 = tested on: KM-20L2
RXF 393 = tested on: RXF 393
SNB-78 = tested on: SNB-78
HOP-62 = tested on: HOP-62
HL-60 = tested on: HL-60
SK-OV-3 = tested on: SK-OV-3
SN12C = tested on: SN12C
A498 = tested on: A498
CCRF-CEM = tested on: CCRF-CEM
HCC 2998 = tested on: HCC 2998
EKVX = tested on: EKVX
RPMI-8226 = tested on: RPMI-8226
OVCAR-3 = tested on: OVCAR-3
SF-295 = tested on: SF-295
HT-29 = tested on: HT-29
OVCAR-8 = tested on: OVCAR-8
KM12 = tested on: KM12
K562 = tested on: K562
UACC-257 = tested on: UACC-257
ACHN = tested on: ACHN
SW-620 = tested on: SW-620
DLD-1 = tested on: DLD-1
786-0 = tested on: 786-0
Malme-3M = tested on: Malme-3M
SK-MEL-28 = tested on: SK-MEL-28
NCI-H522 = tested on: NCI-H522
NCI-H226 = tested on: NCI-H226
UO-31 = tested on: UO-31
HOP-92 = tested on: HOP-92
SF-268 = tested on: SF-268
M19-MEL = tested on: M19-MEL
SK-MEL-5 = tested on: SK-MEL-5
A549 = tested on: A549
U-251 = tested on: U-251
UACC-62 = tested on: UACC-62
NCI-H23 = tested on: NCI-H23
SNB-75 = tested on: SNB-75
HOP-18 = tested on: HOP-18
LOX IMVI = tested on: LOX IMVI
HCT-15 = tested on: HCT-15
CAKI-1 = tested on: CAKI-1
IGROV-1 = tested on: IGROV-1
RXF 631 = tested on: RXF 631
T47D = tested on: T47D
MDA-N = tested on: MDA-N
HCT-116 = tested on: HCT-116
NCI/ADR-RES = tested on: NCI/ADR-RES
MDA-MB-435 = tested on: MDA-MB-435
LXFL 529 = tested on: LXFL 529
OVCAR-4 = tested on: OVCAR-4
BT-549 = tested on: BT-549
SNB-19 = tested on: SNB-19
MDA-MB-231 = tested on: MDA-MB-231
SR = tested on: SR
DU-145 = tested on: DU-145
MCF7 = tested on: MCF7
M14 = tested on: M14
PC-3 = tested on: PC-3
Hs-578T = tested on: Hs-578T

Cc1nc(C(N)=S)sc1C(=O)/C=C/c1cccc(O)c1
GI50 (SF-539): > 100 µM (inactive)
GI50 (DMS-114): 68.1 µM (inactive)
GI50 (NCI-H460): > 100 µM (inactive)
GI50 (TK-10): > 100 µM (inactive)
GI50 (COLO 205): > 100 µM (inactive)
GI50 (DMS-273): > 100 µM (inactive)
GI50 (MOLT-4): 21.9 µM (inactive)
GI50 (SK-MEL-2): > 100 µM (inactive)
GI50 (OVCAR-5): > 100 µM (inactive)
GI50 (KM-20L2): > 100 µM (inactive)
GI50 (RXF 393): > 100 µM (inactive)
GI50 (SNB-78): > 100 µM (inactive)
GI50 (HOP-62): > 100 µM (inactive)
GI50 (HL-60): 36.1 µM (inactive)
GI50 (SK-OV-3): > 100 µM (inactive)
GI50 (SN12C): > 100 µM (inactive)
GI50 (A498): > 100 µM (inactive)
GI50 (CCRF-CEM): 28.4 µM (inactive)
GI50 (HCC 2998): > 100 µM (inactive)
GI50 (EKVX): > 100 µM (inactive)
GI50 (RPMI-8226): 25.9 µM (inactive)
GI50 (OVCAR-3): > 100 µM (inactive)
GI50 (SF-295): > 100 µM (inactive)
GI50 (HT-29): > 100 µM (inactive)
GI50 (OVCAR-8): > 100 µM (inactive)
GI50 (KM12): 32.4 µM (inactive)
GI50 (K562): 29.9 µM (inactive)
GI50 (UACC-257): > 100 µM (inactive)
GI50 (ACHN): 56.6 µM (inactive)
GI50 (SW-620): 82.8 µM (inactive)
GI50 (DLD-1): > 100 µM (inactive)
GI50 (786-0): > 100 µM (inactive)
GI50 (Malme-3M): > 100 µM (inactive)
GI50 (SK-MEL-28): > 100 µM (inactive)
GI50 (NCI-H522): 90.4 µM (inactive)
GI50 (NCI-H226): > 100 µM (inactive)
GI50 (UO-31): > 100 µM (inactive)
GI50 (HOP-92): 60.4 µM (inactive)
GI50 (SF-268): 87.3 µM (inactive)
GI50 (M19-MEL): > 100 µM (inactive)
GI50 (SK-MEL-5): > 100 µM (inactive)
GI50 (A549): > 100 µM (inactive)
GI50 (U-251): > 100 µM (inactive)
GI50 (UACC-62): > 100 µM (inactive)
GI50 (NCI-H23): > 100 µM (inactive)
GI50 (SNB-75): 59.6 µM (inactive)
GI50 (HOP-18): > 100 µM (inactive)
GI50 (LOX IMVI): 45.2 µM (inactive)
GI50 (HCT-15): > 100 µM
GI50 (CAKI-1): > 100 µM (inactive)
GI50 (IGROV-1): > 100 µM (inactive)
GI50 (RXF 631): > 100 µM (inactive)

O=[N+]([O-])C1(CO)COC2(OC1)c1ccccc1-c1ccccc12
GI50 (SF-539): > 69.3 µM (inactive)
GI50 (DMS-114): > 100 µM (inactive)
GI50 (NCI-H460): > 77.4 µM (inactive)
GI50 (T47D): 28.7 µM (inactive)
GI50 (TK-10): > 100 µM (inactive)
GI50 (COLO 205): 40.5 µM (inactive)
GI50 (DMS-273): > 100 µM (inactive)
GI50 (MOLT-4): 53.2 µM (inactive)
GI50 (SK-MEL-2): > 100 µM (inactive)
GI50 (OVCAR-5): > 100 µM (inactive)
GI50 (MDA-N): > 64 µM (inactive)
GI50 (KM-20L2): > 100 µM (inactive)
GI50 (RXF 393): > 55.2 µM (inactive)
GI50 (SNB-78): > 100 µM (inactive)
GI50 (HOP-62): > 100 µM (inactive)
GI50 (HL-60): 21.9 µM (inactive)
GI50 (SK-OV-3): > 100 µM (inactive)
GI50 (SN12C): 70.1 µM (inactive)
GI50 (A498): > 100 µM (inactive)
GI50 (HCT-116): 35.3 µM (inactive)
GI50 (NCI/ADR-RES): > 48.3 µM (inactive)
GI50 (CCRF-CEM): 25.2 µM (inactive)
GI50 (HCC 2998): > 100 µM (inactive)
GI50 (MDA-MB-435): > 100 µM (inactive)
GI50 (EKVX): > 100 µM (inactive)
GI50 (RPMI-8226): 23.8 µM (inactive)
GI50 (LXFL 529): > 100 µM (inactive)
GI50 (OVCAR-3): > 73.5 µM (inactive)
GI50 (SF-295): > 100 µM (inactive)
GI50 (HT-29): > 63.5 µM (inactive)
GI50 (OVCAR-8): > 78.3 µM (inactive)
GI50 (KM12): > 100 µM (inactive)
GI50 (K562): 64.7 µM (inactive)
GI50 (OVCAR-4): > 100 µM (inactive)
GI50 (UACC-257): 79.8 µM (inactive)
GI50 (BT-549): > 53.6 µM (inactive)
GI50 (SNB-19): > 100 µM (inactive)
GI50 (MDA-MB-231): > 100 µM (inactive)
GI50 (SR): 40.6 µM (inactive)
GI50 (ACHN): > 81.3 µM (inactive)
GI50 (SW-620): 21.6 µM (inactive)
GI50 (DLD-1): 36 µM (inactive)
GI50 (786-0): 63.8 µM (inactive)
GI50 (DU-145): 39.4 µM (inactive)
GI50 (MCF7): 48 µM (inactive)
GI50 (Malme-3M): 48.5 µM (inactive)
GI50 (SK-MEL-28): > 100 µM (inactive)
GI50 (NCI-H522): 20 µM (inactive)
GI50 (NCI-H226): > 100 µM (inactive)
GI50 (UO-31): > 100 µM (inactive)
GI50 (HOP-92): > 71.1 µM (inactive)
GI50 (SF-268): 52.8 µM (inactive)
GI50 (M19-MEL): > 100 µM (inactive)
GI50 (SK-MEL-5): > 100 µM (inactive)
GI50 (A549): > 100 µM (inactive)
GI50 (M14): 54.7 µM (inactive)
GI50 (U-251): > 77.8 µM (inactive)
GI50 (PC-3): > 74.8 µM (inactive)
GI50 (UACC-62): > 100 µM (inactive)
GI50 (Hs-578T): > 100 µM (inactive)
GI50 (NCI-H23): > 100 µM (inactive)
GI50 (SNB-75): > 100 µM (inactive)
GI50 (HOP-18): > 100 µM (inactive)
GI50 (LOX IMVI): 45.6 µM (inactive)
GI50 (HCT-15): 59.4 µM
GI50 (CAKI-1): > 100 µM (inactive)
GI50 (IGROV-1): > 89.1 µM (inactive)
GI50 (RXF 631): > 100 µM (inactive)

COc1ccc(/C(=N/NC(=O)NN)C(c2ccc(OC)cc2)C2(O)CNc3c(Cl)cc(Cl)cc32)cc1 (stereo not given)
GI50 (SF-539): > 100 µM (inactive)
GI50 (DMS-114): 71.8 µM (inactive)
GI50 (NCI-H460): > 100 µM (inactive)
GI50 (TK-10): > 100 µM (inactive)
GI50 (COLO 205): > 100 µM (inactive)
GI50 (MOLT-4): 44.7 µM (inactive)
GI50 (SK-MEL-2): > 100 µM (inactive)
GI50 (OVCAR-5): > 100 µM (inactive)
GI50 (KM-20L2): > 100 µM (inactive)
GI50 (RXF 393): > 100 µM (inactive)
GI50 (SNB-78): > 100 µM (inactive)
GI50 (HOP-62): > 100 µM (inactive)
GI50 (HL-60): > 100 µM (inactive)
GI50 (SK-OV-3): 81.8 µM (inactive)
GI50 (SN12C): > 100 µM (inactive)
GI50 (A498): > 100 µM (inactive)
GI50 (HCT-116): 50.9 µM (inactive)
GI50 (CCRF-CEM): 88.9 µM (inactive)
GI50 (HCC 2998): > 100 µM (inactive)
GI50 (EKVX): > 100 µM (inactive)
GI50 (RPMI-8226): 60.8 µM (inactive)
GI50 (LXFL 529): 65.6 µM (inactive)
GI50 (OVCAR-3): > 100 µM (inactive)
GI50 (SF-295): > 100 µM (inactive)
GI50 (HT-29): 89.9 µM (inactive)
GI50 (OVCAR-8): > 100 µM (inactive)
GI50 (KM12): > 100 µM (inactive)
GI50 (K562): > 100 µM (inactive)
GI50 (OVCAR-4): > 100 µM (inactive)
GI50 (UACC-257): > 100 µM (inactive)
GI50 (SNB-19): > 100 µM (inactive)
GI50 (ACHN): > 100 µM (inactive)
GI50 (SW-620): > 100 µM (inactive)
GI50 (DLD-1): > 100 µM (inactive)
GI50 (786-0): > 100 µM (inactive)
GI50 (Malme-3M): > 100 µM (inactive)
GI50 (SK-MEL-28): > 100 µM (inactive)
GI50 (NCI-H522): > 100 µM (inactive)
GI50 (NCI-H226): > 100 µM (inactive)
GI50 (UO-31): > 100 µM (inactive)
GI50 (HOP-92): 37.7 µM (inactive)
GI50 (SF-268): > 100 µM (inactive)
GI50 (M19-MEL): > 100 µM (inactive)
GI50 (SK-MEL-5): > 100 µM (inactive)
GI50 (A549): > 100 µM (inactive)
GI50 (M14): > 100 µM (inactive)
GI50 (U-251): > 100 µM (inactive)
GI50 (UACC-62): 99.1 µM (inactive)
GI50 (NCI-H23): > 100 µM (inactive)
GI50 (SNB-75): > 100 µM (inactive)
GI50 (HOP-18): 53.2 µM (inactive)
GI50 (LOX IMVI): > 100 µM (inactive)
GI50 (HCT-15): > 100 µM
GI50 (IGROV-1): > 100 µM (inactive)
GI50 (RXF 631): 48.3 µM (inactive)
